Usually LD50 stands for the dose expected to kill half of the subjects tested. Low readings indicate a more toxic substance, high ones a less toxic substance.

One data set is described as follows: Acute toxicity in mice. The following applies: mouse, in vivo, male CF-1 mice, survivors at 24 and 48 hours. On the procedure: The acute toxicity determinations were carried out with groups of male (Carworth CF-1) mice weighing 18-20 g. LD50 values […] the dose that was lethal to 50% of the mice) were calculated by probit analysis based on the number of survivors at 24 and 48 hours after dosing.

Data set [1] deals with Antibiotic AR-5 Sensitive strains. Nature of the data set: In vivo mouse protection test, Antibiotic AR-5 sensitive strains. Also noted: species or system male (Carworth CF-1) mice. The following applies: for ED50: Mus musculus, Antibiotic AR-5 sensitive strains, number of strains averaged in parentheses, read-out: Mean PD50; for oral potency relative to erythromycin and rosaramicin (fold more potent): in vivo PD50, in general. On the procedure:
(§1) In vivo mouse protection tests were performed in male (Carworth CF-1) mice weighing 18-20 g each. Infection was with about 10^7 organisms per mouse or sufficient inocula to cause death of control groups 24 to 48 hours after infection. The infecting organisms included strains of Staphylococcus Enterococcus, β-hemolytic Streptococcus and E. coli.

In data set [2] the test system is Antibiotic AR-5 Resistant strains. Kind of data set: In vivo mouse protection test, Antibiotic AR-5 resistant strains. Set-up: species or system male (Carworth CF-1) mice. The following applies: read-out: Mean PD50. As to the method:
as §1

Another data set relates to M. polytrota. Kind of data set: Antibiotic susceptibility of producing strain. It is filed as cell-based, Micromonospora polytrota. To be noted: for sensitivity of M. polytrota: concentration not given; for Growth in the presence of 50 mcg/ml antibiotic: M. polytrota. On the procedure:
Test antibiotics were dissolved in the appropriate solvent at a concentration based on an activity of 1000 mcg/ml. Stock solutions were diluted in sterile distilled water to a final concentration of 500 mcg/ml and filter sterilized ([…] filters, Millipore Corporation). To 10 ml of the sterile antibiotic solutions, 90 ml of melted agar consisting of yeast extract, 10 g; dextrose, 10 g; agar, 15 g; tap water, 1000 ml; […] cooled to 45° C. was added, and 20 ml of the resulting mixture was aseptically pipetted into sterile petri dishes (100×150 mm). The final concentration of each antibiotic in the agar was 50 mcg/ml.

The nature of data set [3]: Serum levels of the antibiotics. The data set is classed as in vivo. To be noted: mice, rats and dogs. As to the method: The serum levels of the respective antibiotics were measured in mice, rats and dogs.

Read-outs that look alike come from different tables or passages of the source.

For `CC[C@H]1OC(=O)C[C@@H](O)[C@H](C)[C@@H](O[C@@H]2O[C@H](C)C[C@H](N(C)C)[C@H]2O)[C@@H](CC=O)C[C@@H](C)C(=O)/C=C/[C@]2(C)O[C@H]2[C@@H]1C` [F, Rosaramicin, reference compound], the LD50 in the data set “Acute toxicity in mice” (ip) was found to be 260 mg/kg; in the data set “Acute toxicity in mice” (iv), 175 mg/kg; in “Acute toxicity in mice” (oral) it was 1300 mg/kg. Moreover, the ED50 was 8.3 mg/kg in data set [1] (sc), 181 mg/kg in data set [1] (oral), 400 mg/kg in data set [2] (po) and 100 mg/kg in data set [2] (sc). Further, the “sensitivity of M. polytrota” value with M. polytrota is listed as “exhibits sensitivity”.
With `CCC[C@@H]1C[C@@H](C(=O)N[C@@H]([C@H]2O[C@H](SC)[C@H](O)[C@@H](O)[C@H]2O)[C@H](C)Cl)N(C)C1` [Clindamycin], the “Growth in the presence of 50 mcg/ml antibiotic” value (from here on “Growth in the presence”) in the data set with M. polytrota is “grows”.
With Gentamicin, in the data set with M. polytrota, the “Growth in the presence” value is “grows”.
For `CCC1OC(=O)/C=C/C(C)C(OC2OC(C)CC(N(C)C)C2O)C(C)CC(C)C(=O)/C=C/C=C/C1COC1OC(C)C(O)C(OC)C1OC` (stereo not drawn) [B, 12,13-desepoxy AR-5 component 1], the LD50 in the data set “Acute toxicity in mice” (ip) was determined as 275 mg/kg; in “Acute toxicity in mice” (iv), 160 mg/kg. Also, the ED50 was 2.5 mg/kg in data set [1] (sc), 3.8 mg/kg in data set [1] (oral), 100 mg/kg in data set [2] (po) and 100 mg/kg in data set [2] (sc). Moreover, in data set [1] (oral), the “oral potency relative to erythromycin and rosaramicin (fold more potent)” value is on record as 30-40 fold.
Regarding `O=C(N[C@H](CO)[C@H](O)c1ccc([N+](=O)[O-])cc1)C(Cl)Cl` [Chloramphenicol], the “sensitivity of M. polytrota” value in the data set with M. polytrota was “exhibits sensitivity”.
On to `CCC1OC(=O)/C=C/C(C)C(OC2OC(C)CC(N(C)C)C2O)C(C)CC(C)C(=O)/C=C/C2OC2C1COC1OC(C)C(O)C(OC)C1OC` (stereo not drawn) [A, Antibiotic AR-5 component 1], for which the LD50 in the data set “Acute toxicity in mice” (ip) was 310 mg/kg; in the data set “Acute toxicity in mice” (iv), 140 mg/kg. The ED50 in data set [1] (sc) was determined as 4 mg/kg; in data set [1] (oral), 4.1 mg/kg; in data set [2] (po) it was 100 mg/kg; in data set [2] (sc) it was 100 mg/kg. The “oral potency relative to erythromycin and rosaramicin (fold more potent)” value in data set [1] (oral) is recorded as 30-40 fold. For the same molecule, in data set [3], the “duration of therapeutic serum levels” value is recorded as “produces therapeutic serum levels of greater duration”.
`CCC1OC(=O)/C=C/C(C)C(OC2OC(C)CC(N(C)C)C2O)C(C)CC(C)C(=O)/C=C/C2OC2C1(O)COC1OC(C)C(O)C(OC)C1OC` (stereo not drawn) [C, Antibiotic AR-5 component 2]: the LD50 is 610 mg/kg in the data set “Acute toxicity in mice” (ip) and 310 mg/kg in the data set “Acute toxicity in mice” (iv). Further, the ED50 in data set [1] (sc) was found to be 5.1 mg/kg; in data set [1] (oral), 35.8 mg/kg; in data set [2] (po), 100 mg/kg; in data set [2] (sc), 100 mg/kg. Further, the “time of peak serum levels” value in data set [3] (versus the other antibiotics tested) was “produces peak serum levels earlier than any of the other antibiotics tested”.
Regarding `CCC[C@@H]1C[C@@H](C(=O)N[C@@H]([C@H]2O[C@H](SC)[C@H](O)[C@@H](O)[C@H]2O)[C@@H](C)O)N(C)C1` [Lincomycin], the “Growth in the presence” value in the data set on M. polytrota is on record as “grows”.
Same read-out and setting: next, `NC[C@H]1O[C@H](O[C@H]2[C@H](O)[C@@H](O[C@H]3O[C@H](CO)[C@@H](O)[C@H](N)[C@H]3O)[C@H](N)C[C@@H]2N)[C@H](O)[C@@H](O)[C@@H]1O` [Kanamycin]: “grows”.
Regarding `CC[C@H]1OC(=O)[C@H](C)[C@@H](O[C@H]2C[C@@](C)(OC)[C@@H](O)[C@H](C)O2)[C@H](C)[C@@H](O[C@@H]2O[C@H](C)C[C@H](N(C)C)[C@H]2O)[C@](C)(O)C[C@@H](C)C(=O)[C@H](C)[C@@H](O)[C@]1(C)O` [E, Erythromycin, reference compound], the values for the LD50 in “Acute toxicity in mice” (ip) and in “Acute toxicity in mice” (iv) were 355 mg/kg and 260 mg/kg, respectively. For the same molecule, the ED50 worked out at 13.3 mg/kg in data set [1] (sc), 135 mg/kg in data set [1] (oral), 400 mg/kg in data set [2] (po) and 100 mg/kg in data set [2] (sc).
As to `CN[C@@H]1[C@@H](O)[C@@H](O[C@@H]2[C@@H](O)[C@H](O[C@H]3OC(CN)=CC[C@H]3N)[C@@H](N)C[C@H]2N)OC[C@]1(C)O` [Sisomicin], in the data set with M. polytrota, the “Growth in the presence” value is recorded as “grows”.

Source of the values: patent publication US4367287A, “Process of producing antibiotic AR-5 complex” (Schering Corporation, priority 1981, dated 1983).
